This note sets out measurements from ChEMBL document CHEMBL4261543, “Integrating docking scores and key interaction profiles to improve the accuracy of molecular docking: towards novel B-RafV600E inhibitors” (Medchemcomm, 2017).

Chain of Serine/threonine-protein kinase B-raf (Homo sapiens), P15056 [V600E] (P15056 whole entry V600E): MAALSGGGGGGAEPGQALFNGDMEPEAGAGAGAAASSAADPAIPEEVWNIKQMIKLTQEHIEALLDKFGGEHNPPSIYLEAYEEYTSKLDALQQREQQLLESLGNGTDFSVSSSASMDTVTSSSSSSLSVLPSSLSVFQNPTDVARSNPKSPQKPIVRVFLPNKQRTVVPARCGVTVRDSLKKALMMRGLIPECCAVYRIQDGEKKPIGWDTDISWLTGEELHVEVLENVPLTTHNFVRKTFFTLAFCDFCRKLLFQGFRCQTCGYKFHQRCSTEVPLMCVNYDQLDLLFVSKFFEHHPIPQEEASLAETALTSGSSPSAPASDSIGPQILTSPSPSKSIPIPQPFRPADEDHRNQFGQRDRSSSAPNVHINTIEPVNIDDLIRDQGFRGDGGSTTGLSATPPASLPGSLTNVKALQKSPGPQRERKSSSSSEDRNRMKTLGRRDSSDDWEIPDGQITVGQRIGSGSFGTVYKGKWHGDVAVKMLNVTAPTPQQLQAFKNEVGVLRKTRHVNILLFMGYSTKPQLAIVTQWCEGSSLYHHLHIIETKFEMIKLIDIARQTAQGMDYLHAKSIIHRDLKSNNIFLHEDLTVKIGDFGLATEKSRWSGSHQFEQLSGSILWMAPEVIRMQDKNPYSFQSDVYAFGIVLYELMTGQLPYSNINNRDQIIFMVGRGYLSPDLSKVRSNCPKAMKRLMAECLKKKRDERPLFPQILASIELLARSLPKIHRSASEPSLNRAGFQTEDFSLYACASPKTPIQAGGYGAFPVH
Chain of Serine/threonine-protein kinase B-raf (P15056 2-766 V600E limits assumed): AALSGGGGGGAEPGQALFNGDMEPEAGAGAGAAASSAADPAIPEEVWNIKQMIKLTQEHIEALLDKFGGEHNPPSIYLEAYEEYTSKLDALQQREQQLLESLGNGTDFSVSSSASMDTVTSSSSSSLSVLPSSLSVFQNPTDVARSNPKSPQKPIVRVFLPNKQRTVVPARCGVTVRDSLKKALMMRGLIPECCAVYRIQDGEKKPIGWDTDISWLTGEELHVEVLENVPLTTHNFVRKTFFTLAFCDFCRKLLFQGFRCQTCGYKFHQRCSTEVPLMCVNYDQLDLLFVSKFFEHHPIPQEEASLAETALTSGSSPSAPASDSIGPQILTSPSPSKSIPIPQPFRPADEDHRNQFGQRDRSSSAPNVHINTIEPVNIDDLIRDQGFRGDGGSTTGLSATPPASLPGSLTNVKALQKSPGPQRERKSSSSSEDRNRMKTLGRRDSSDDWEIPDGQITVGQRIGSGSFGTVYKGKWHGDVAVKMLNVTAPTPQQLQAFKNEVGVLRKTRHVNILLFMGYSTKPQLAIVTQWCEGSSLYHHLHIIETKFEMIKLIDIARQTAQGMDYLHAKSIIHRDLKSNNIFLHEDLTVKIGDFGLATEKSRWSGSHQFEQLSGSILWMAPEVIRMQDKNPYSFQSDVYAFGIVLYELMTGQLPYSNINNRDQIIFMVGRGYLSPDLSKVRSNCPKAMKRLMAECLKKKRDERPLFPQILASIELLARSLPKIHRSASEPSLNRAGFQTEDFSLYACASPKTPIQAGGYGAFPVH

The first assay addresses Serine/threonine-protein kinase B-raf (Homo sapiens, UniProt P15056, V600E). Put plainly: Inhibition of B-Raf V600E mutant (unknown origin) using fluorescein-MAP2K1 as substrate after 1 hr by electrophoretic assay.
Usually IC50 stands for the concentration that gives 50% inhibition. In the case of `CCCS(=O)(=O)Nc1ccc(F)c(C(=O)Nc2cnc3[nH]ccc3c2)c1F`, the IC50 turned out to be 17 nM.

The molecule `CCCS(=O)(=O)Nc1ccc(F)c(C(=O)Nc2cnc3[nH]cc(Br)c3c2)c1F` registered an IC50 of 3.4 to 4 nM.

Take `O=c1c(O)c(-c2ccc(O)c(O)c2)oc2cc(O)cc(O)c12` [QUERCETIN]: the IC50 was 7590 nM.

In the case of `CCCS(=O)(=O)Nc1ccc(F)c(C(=O)Nc2cnc3[nH]cc(N(C)C)c3c2)c1F`, the IC50 turned out to be 8.2 nM.

For the molecule `CCCS(=O)(=O)Nc1ccc(F)c(C(=O)Nc2cnc3[nH]cnc3c2)c1C`, 61 nM corresponded to half-maximal inhibition (IC50). This IC50 lies about 7.4-fold higher than the previous one.

In the case of `CCCS(=O)(=O)Nc1ccc(F)c(C(=O)Nc2cnc3[nH]cc(OC)c3c2)c1F`, the IC50 was 4.8 nM.

For the molecule `CCCS(=O)(=O)Nc1ccc(Cl)c(C(=O)Nc2cnc3[nH]cc(OC)c3c2)c1F`, the IC50 turned out to be 1.7 nM.

In the case of `CCCS(=O)(=O)Nc1ccc(Cl)c(C(=O)Nc2cnc3[nH]ccc3c2)c1F`, the IC50 came to 6.3 nM.

Molecule `CCCS(=O)(=O)Nc1ccc(F)c(C(=O)Nc2ccc(N)nc2)c1F` gave an IC50 of 917 to 920 nM.

Consider `O=c1c(O)c(-c2cc(O)c(O)c(O)c2)oc2cc(O)cc(O)c12` [MYRICETIN], for which 1560 nM corresponded to half-maximal inhibition (IC50).

`CCCS(=O)(=O)Nc1ccc(F)c(C(=O)Nc2cnc3[nH]ccc3c2)c1C` came in with an IC50 of 38 nM.

`CCCS(=O)(=O)Nc1ccc(F)c(C(=O)Nc2cnc3[nH]cc(C)c3c2)c1F` came in with an IC50 of 12 nM.

The subject of another assay is Serine/threonine-protein kinase B-raf (Homo sapiens), P15056 [V600E]. Put plainly: Inhibition of B-Raf V600E mutant (unknown origin) at 10 uM using fluorescein-MAP2K1 as substrate after 1 hr by electrophoretic assay relative to control.
Broadly, the inhibition is the change of the read-out against control, counted positive when it falls. In turn, `CCCS(=O)(=O)Nc1ccc(F)c(-c2cc3cnc(NC4CCOCC4)nc3n(C)c2=O)c1F` registered an inhibition of over 40%.

With `COCCNC(=O)c1ccc(Nc2ncc3cc(-c4ccncc4C)ccc3n2)cc1`, the inhibition is over 40%.

The molecule `C[C@@H](NC1=CC(=O)CNC1)c1ccc(Nc2ncc3cc(-c4ccncc4)ccc3n2)cc1` came in with an inhibition of over 40%.

In the case of `C[C@@H](NC(=O)[C@H]1CCCCN1C)c1ccc(Nc2ncc3cc(-c4ccncc4)ccc3n2)cc1`, the inhibition is over 40%.

Molecule `CC(C)c1nc(-c2cccc(NS(=O)(=O)c3c(F)cccc3F)c2)c(-c2ccnc(N)n2)s1` had an inhibition of over 40%.

In turn, `CCCS(=O)(=O)Nc1ccc(F)c(C(=O)Nc2cnc3[nH]ccc3c2)c1F` gave an inhibition of over 40%.

In turn, `CCCS(=O)(=O)Nc1ccc(F)c(-c2cc3cnc(Nc4cccnc4)nc3n(C)c2=O)c1F` showed an inhibition of over 40%.

The molecule `CCCS(=O)(=O)Nc1ccc(F)c(-c2ccc3nc(N)ncc3c2)c1F` had an inhibition of over 40%.

In the case of `CCCS(=O)(=O)Nc1ccc(F)c(-c2cc3cnc(NCC4CC4)nc3n(C)c2=O)c1F`, the inhibition was over 40%.

`CCCS(=O)(=O)Nc1ccc(F)c(-c2cc3cncc(Br)c3cn2)c1F` had an inhibition of over 40%.

In the case of `CCCS(=O)(=O)Nc1ccc(F)c(C(=O)Nc2cnc3[nH]cc(Br)c3c2)c1F`, the inhibition is over 40%.

Regarding `CCCS(=O)(=O)Nc1ccc(F)c(NC(=O)c2cccc3c(N)ncnc23)c1F`, the inhibition was over 40%.

In turn, `CC(C)c1nc(-c2cccc(NS(=O)(=O)c3cccc(F)c3)c2)c(-c2ccnc(NCC(N)=O)n2)s1` displayed an inhibition of over 40%.

`CC(C)(C)c1nc(-c2cccc(NS(=O)(=O)c3cc(F)ccc3F)c2)c(-c2ccnc(N)n2)s1` yielded an inhibition of over 40%.

The molecule `CCCS(=O)(=O)Nc1ccc(F)c(NC(=O)Nc2ncnc3[nH]ncc23)c1F` came in with an inhibition of over 40%.

In the case of `O=C(NCCN1CCCC1)c1ccc(Nc2ncc3cc(-c4ccncc4)ccc3n2)cc1`, the inhibition was over 40%.

Regarding `CCCS(=O)(=O)Nc1ccc(F)c(-c2cc3cnc(NCCO)nc3n(C)c2=O)c1F`, the inhibition is over 40%.

Molecule `CCCS(=O)(=O)Nc1ccc(F)c(C(=O)Nc2cnc3[nH]cc(N(C)C)c3c2)c1F` displayed an inhibition of over 40%.

In the case of `c1cc(-c2ccc3nc(Nc4ccc(OCCN5CCCC5)cc4)ncc3c2)ccn1`, the inhibition is over 40%.

`CCCS(=O)(=O)Nc1ccc(F)c(-c2ccc3ccncc3n2)c1F` gave an inhibition of over 40%.

Turning to `CCCS(=O)(=O)Nc1ccc(F)c(C(=O)Nc2cnc3[nH]nc(OC)c3c2)c1F`, the inhibition was over 40%.

Consider `CCCS(=O)(=O)Nc1ccc(F)c(NC(=O)c2csc3c(N)ncnc23)c1Cl`, for which the inhibition was over 40%.

Turning to `CCCS(=O)(=O)Nc1ccc(F)c(-c2cc3cnc(Nc4ccccc4)nc3n(C)c2=O)c1F`, the inhibition is over 40%.

Molecule `CCCS(=O)(=O)Nc1ccc(F)c(-c2ccc3ccncc3c2)c1F` came in with an inhibition of over 40%.

Consider `CCCS(=O)(=O)Nc1ccc(F)c(-c2cc3cnccc3cn2)c1F`, for which the inhibition was over 40%.

Molecule `COCCNC(=O)c1ccc(Nc2ncc3cc(-c4ccc(F)nc4)ccc3n2)cc1` showed an inhibition of over 40%.

On to `CCCS(=O)(=O)Nc1ccc(F)c(C(=O)Nc2cnc3[nH]cnc3c2)c1C`, for which the inhibition is over 40%.

In the case of `CCCS(=O)(=O)Nc1ccc(F)c(NC(=O)N(C)c2cc(N)ncn2)c1F`, the inhibition was over 40%.

As for `COCCOc1ccc(Nc2ncc3cc(-c4ccncc4)ccc3n2)cc1`, the inhibition was over 40%.

`Nc1ncnc2c(C(=O)Nc3c(Cl)ccc(NS(=O)(=O)CCCF)c3F)cccc12` gave an inhibition of over 40%.

With `CCCS(=O)(=O)Nc1ccc(F)c(C(=O)Nc2cnc3[nH]cc(OC)c3c2)c1F`, the inhibition was over 40%.

On to `CC(=O)N[C@H](C)c1ccc(Nc2ncc3cc(-c4ccncc4)cc(Cl)c3n2)cc1`, for which the inhibition is over 40%.

For the molecule `COCCNC(=O)c1ccc(Nc2ncc3cc(-c4ccncc4Cl)ccc3n2)cc1`, the inhibition is over 40%.

On to `C[C@@H](NC(=O)C1CCNCC1)c1ccc(Nc2ncc3cc(-c4ccncc4)ccc3n2)cc1`, for which the inhibition was over 40%.

Turning to `CCCS(=O)(=O)Nc1ccc(F)c(-c2cc3cnccc3c(=O)n2C)c1F`, the inhibition was over 40%.

In turn, `CCCS(=O)(=O)Nc1ccc(F)c(-c2ccc3cc(N)ncc3c2)c1F` came in with an inhibition of over 40%.

Molecule `COCCNC(=O)c1ccc(Nc2ncc3cc(-c4ccnc(C)c4)ccc3n2)cc1` yielded an inhibition of over 40%.

On to `CCCS(=O)(=O)Nc1ccc(Cl)c(NC(=O)c2cccc3c(N)ncnc23)c1F`, for which the inhibition was over 40%.

The molecule `Nc1ncnc2c(C(=O)Nc3c(Cl)ccc(NS(=O)(=O)CCCF)c3F)csc12` yielded an inhibition of over 40%.

Consider `CCCS(=O)(=O)Nc1ccc(F)c(-c2cc3cnc(Nc4cnn(C)c4)nc3n(C)c2=O)c1F`, for which the inhibition was over 40%.

Turning to `CCCS(=O)(=O)Nc1ccc(Cl)c(NC(=O)c2csc3c(N)ncnc23)c1F`, the inhibition is over 40%.

Regarding `CN1CCCC1CCNC(=O)c1ccc(Nc2ncc3cc(-c4ccncc4)ccc3n2)cc1` (stereo unspecified), the inhibition was over 40%.

`CCCS(=O)(=O)Nc1ccc(C)c(-c2ccc3nc(N)ncc3c2)c1` displayed an inhibition of over 40%.

`CC(=O)N[C@H](C)c1ccc(Nc2ncc3cc(-c4ccncc4)c(C)cc3n2)cc1`: the inhibition is over 40%.

As for `CCCS(=O)(=O)Nc1ccc(Cl)c(C(=O)Nc2cnc3[nH]cc(OC)c3c2)c1F`, the inhibition was over 40%.

`COCCNC(=O)c1ccc(Nc2ncc3cc(-c4cncnc4)ccc3n2)cc1` displayed an inhibition of over 40%.

Molecule `CCCS(=O)(=O)Nc1ccc(F)c(-c2cc3cnc(N)nc3n(C)c2=O)c1F` showed an inhibition of over 40%.

On to `CCCS(=O)(=O)Nc1ccc(F)c(NC(=O)Nc2cc(NC)ncn2)c1F`, for which the inhibition is over 40%.

In turn, `CCCS(=O)(=O)Nc1ccc(F)c(-c2cc3cnccc3n(CCc3ccccc3)c2=O)c1F` yielded an inhibition of over 40%.

The molecule `CCCS(=O)(=O)Nc1ccc(F)c(NC(=O)Nc2ncnc3[nH]nc(OC)c23)c1F` had an inhibition of over 40%.

The molecule `CCCS(=O)(=O)Nc1ccc(F)c(NC(=O)c2csc3c(N)ncnc23)c1F` had an inhibition of over 40%.

In turn, `CC(C)c1nc(-c2ccc(F)c(NS(=O)(=O)c3c(F)cccc3F)c2)c(-c2ccnc(NCCS(C)(=O)=O)n2)s1` returned an inhibition of over 40%.

Molecule `COCCNC(=O)c1ccc(Nc2ncc3cc(-c4cccnc4)ccc3n2)cc1` gave an inhibition of over 40%.

`CC(C)c1nc(-c2cccc(NS(=O)(=O)c3cccc(F)c3)c2)c(-c2ccnc(NCCCN(C)C)n2)s1` returned an inhibition of over 40%.

`CCCS(=O)(=O)Nc1ccc(F)c(NC(=O)Nc2cc(N)ncn2)c1F` had an inhibition of over 40%.

Consider `CCCS(=O)(=O)Nc1ccc(F)c(C(=O)c2c[nH]c3ncc(-c4ccc(Cl)cc4)cc23)c1F`, for which the inhibition was over 40%.

In the case of `CC(C)c1nc(-c2ccc(F)c(NS(=O)(=O)c3c(F)cccc3F)c2)c(-c2ccnc(Nc3ccc(N4CCOCC4)nc3)n2)s1`, the inhibition is over 40%.

The molecule `CC(=O)N(C)c1ccc(Nc2ncc3cc(-c4ccncc4)ccc3n2)cc1` gave an inhibition of over 40%.

The molecule `CN(C)CCNC(=O)c1ccc(Nc2ncc3cc(-c4ccncc4)ccc3n2)cc1` yielded an inhibition of over 40%.

Molecule `CCCS(=O)(=O)Nc1ccc(Cl)c(C(=O)Nc2cnc3[nH]ccc3c2)c1F` gave an inhibition of over 40%.

`C[C@@H](NC(=O)[C@H]1CCCCN1CCO)c1ccc(Nc2ncc3cc(-c4ccncc4)ccc3n2)cc1` came in with an inhibition of over 40%.

`CCCS(=O)(=O)Nc1ccc(F)c(NC(=O)c2cccc3c(N)ncnc23)c1Cl` yielded an inhibition of over 40%.

Turning to `CCCS(=O)(=O)Nc1ccc(F)c(C(=O)Nc2ccc(N)nc2)c1F`, the inhibition was over 40%.

For `COCCNC(=O)c1ccc(Nc2ncc3cc(-c4ccncc4)ccc3n2)cc1F`, the inhibition is over 40%.

The molecule `CC(C)(C)c1nc(-c2cccc(NS(=O)(=O)c3c(F)cccc3F)c2F)c(-c2ccnc(N)n2)s1` came in with an inhibition of over 40%.

With `COCCNC(=O)c1ccc(Nc2ncc3cc(-c4ccc(OC)nc4)ccc3n2)cc1`, the inhibition is over 40%.

The molecule `CCCS(=O)(=O)Nc1ccc(F)c(-c2cc3cnc(NCCCO)nc3n(C)c2=O)c1F` displayed an inhibition of over 40%.

With `CC(=O)Nc1ccc(Nc2ncc3cc(-c4ccncc4)ccc3n2)cc1`, the inhibition was over 40%.

`COCCNC(=O)c1ccc(Nc2ncc3cc(-c4ccncc4OC)ccc3n2)cc1`: the inhibition is over 40%.

Regarding `CC(C)c1nc(-c2cccc(NS(=O)(=O)c3c(F)cccc3F)c2)c(-c2ccnc(NCCS(C)(=O)=O)n2)s1`, the inhibition was over 40%.

The molecule `COCCNC(=O)c1ccc(Nc2ncc3cc(-c4ccccc4)ccc3n2)cc1` returned an inhibition of over 40%.

As to `CCCS(=O)(=O)Nc1ccc(F)c(C(=O)Nc2cnc3[nH]ccc3c2)c1C`, the inhibition is over 40%.

Regarding `CCCS(=O)(=O)Nc1ccc(F)c(C(=O)Nc2cnc3[nH]cc(C)c3c2)c1F`, the inhibition is over 40%.

`CCCS(=O)(=O)Nc1ccc(F)c(-c2cc3cnc(NC)nc3n(C)c2=O)c1F` gave an inhibition of over 40%.
